Test results from patent publication US20050176584A1, “Mehtod for high throughput screening of plant growth regulator” (Korea Research Institute of Bioscience and Biotechnology, priority 2002, published 2005).

Columns and labels:
Lemna paucicostata = Lemna paucicostata growth inhibition in 24 well plate; conditions: for inhibition at 31 ppm: Lemna aequinoctialis, 120 h, read-out: Lemna paucicostata (% activity)
[1] = tested on: Marchantia polymorpha L. photomixotrophic cells; assay: TTC high throughput screening of cell growth in microwell plate; type: cell-based; conditions: for effect of natural compounds on cell growth, in words: 1 ppm; for growth inhibition activities (IC50) to Marchantia polymorpha L. photomixotrophic cells: TTC analysis
[2] = tested on: Nicotiana tabacum cv. (BY4) photomixotrophic cells; assay: TTC analysis of growth inhibition, tobacco photomixotrophic cells; type: cell-based
Method: As Nicotiana tabacum cv. (BY4) photomixotrophic cells, the cells developed as NaCl resistance cells by Cha et al. (Cha et al., Korean J Bot, -36: 113-120, 1993) were used. For the culture of the above cells, MS minimal medium where 0.7 mg/l of 2,4-D and 0.03 mg/l of kinetin were added was used. 2 g of Nicotiana tabacum cv. […] The cells were sub-cultured at intervals of 14 days. The investigation procedure of cell viability in a 96 microwell plate of the present invention is precisely explained as follows. 1) Treating 150 μl of TTC solution into each well wherein cells are being cultured. 2) Five hours after treating TTC, removing the solution in wells with a 8-channel multi-pipette. 3) Adding 150 μl of 95% ethanol to the remaining cells of each well, and then reacting thereof at 60° C. for 1 hour. 4) After reaction finished, transferring the reacting solution into a new 96 well plate. 5) Measuring the optical density of the well plate at 490 nm wave length with a high throughput screening (HTS) reader. The explained method of the present invention is called high throughput screening. […] Oryza sativa L. cv (Taebaegbyeo) heterotrophic cells used in this experiment were developed from premature embryo (Korean J Plant Tissue Culture, 18: 209-214, 1991).

[3] = tested on: Oryza sativa L. cv (Taebaegbyeo) heterotrophic cells; assay: TTC analysis of growth inhibition, rice heterotrophic cells; type: cell-based; conditions: for growth inhibition activities (IC50) to Oryza sativa L. cv (Taebaegbyeo) heterotrophic cells: TTC analysis; for growth inhibiting activity to non-photomixotrophic (heterotrophic) cells, in words: 10 ppm
Method: Other culture conditions were same as those for Marchantia polymorpha L. photomixotrophic cell culture. The investigation procedure of cell viability in a 96 microwell plate of the present invention is precisely explained as follows. 1) Treating 150 μl of TTC solution into each well wherein cells are being cultured. 2) Five hours after treating TTC, removing the solution in wells with a 8-channel multi-pipette. 3) Adding 150 μl of 95% ethanol to the remaining cells of each well, and then reacting thereof at 60° C. for 1 hour. 4) After reaction finished, transferring the reacting solution into a new 96 well plate. 5) Measuring the optical density of the well plate at 490 nm wave length with a high throughput screening (HTS) reader. The explained method of the present invention is called high throughput screening. […] Oryza sativa L. cv (Taebaegbyeo) heterotrophic cells used in this experiment were developed from premature embryo (Korean J Plant Tissue Culture, 18: 209-214, 1991).

[4] = Marchantia polymorpha, natural compounds, final concentration 1 ppm, + inhibiting, − promoting

SMILES | inhibition at 31 ppm (Lemna paucicostata) | inhibition at 1 ppm [1, 4] | growth inhibition activities (IC50) to Nicotiana tabacum cv. (BY4) photomixotrophic cells [2] | growth inhibition activities (IC50) to Marchantia polymorpha L. photomixotrophic cells ([1]; 96 well plate) | growth inhibition activities (IC50) to Oryza sativa L. cv (Taebaegbyeo) heterotrophic cells [3] | other results
O=C1COc2ccccc21 [3-Coumaranone] | 0% | -18% | – | – | – | effect of natural compounds on cell growth, in words [1]: growth promoting activity
CC(C)C1(C)N=C(c2ncccc2C(=O)O)NC1=O (stereo not shown) [Amazapyr] | – | – | 0.018 ppm | 0.35 ppm | 0.269 ppm | –
CCNc1nc(Cl)nc(NC(C)C)n1 [Atrazine] | – | – | 0.18 ppm | 0.21 ppm | >10 ppm | intracellular formazan content ([1]; 12 well plate, different concentrations, 1 and 5 hours after TTC): decreased dose-dependently; content that can inhibit cell growth upto about 50% ([1]; 96 well plate, TTC 5 hours): 0.18 ppm; IC50 ([1]; Marchantia polymorpha, 96 well plate, TTC 5 hours, read-out: content that can inhibit cell growth upto about 50%): 680 nM; growth inhibiting activity to non-photomixotrophic (heterotrophic) cells, in words [3]: low growth inhibiting activity or almost none
O=C(O)c1ccccc1 [Benzoic acid] | 10% | – | – | – | – | –
O=C(O)/C=C/c1ccc(O)c(O)c1 [Caffeic acid] | 30% | 21% | – | – | – | –
COc1cc(Oc2ccc(Cl)cc2Cl)ccc1[N+](=O)[O-] [Chloromethoxynil] | – | – | 0.193 ppm | 0.076 ppm | >10 ppm | growth inhibiting activity to non-photomixotrophic (heterotrophic) cells, in words [3]: low growth inhibiting activity or almost none
O=c1ccc2ccccc2o1 [Coumarin] | 80% | 33% | – | – | – | –
O=c1oc2ccccc2c(O)c1Cc1c(O)c2ccccc2oc1=O [Dicumarol] | 30% | -31% | – | – | – | effect of natural compounds on cell growth, in words [1]: growth promoting activity
O=C(Nc1ccc(F)cc1F)c1cccnc1Oc1cccc(C(F)(F)F)c1 [Diflufenican] | – | – | 4.67 ppm | 0.031 ppm | >10 ppm | growth inhibiting activity to non-photomixotrophic (heterotrophic) cells, in words [3]: low growth inhibiting activity or almost none
CSC(=O)c1c(C(F)F)nc(C(F)(F)F)c(C(=O)SC)c1CC(C)C [Dithiopyr] | – | – | 0.141 ppm | 0.048 ppm | 0.613 ppm | –
COc1cc(/C=C/C(=O)O)ccc1O [Ferulic acid] | 20% | -35% | – | – | – | effect of natural compounds on cell growth, in words [1]: growth promoting activity
O=C(O)c1cc(O)c(O)c(O)c1 [Gallic acid] | 0% | 8% | – | – | – | –
O=C(O)c1cc(O)ccc1O [Gentistic acid] | – | – | – | – | – | Lemna paucicostata (% activity) (Lemna paucicostata; final concentration 31 ppm, 5 days after treating): 0%; Marchantia polymorpha L. photomixotrophic cells (% activity) ([1]; natural compounds, final concentration 1 ppm, + inhibiting, − promoting): 9%
Oc1ccc(O)cc1 [Hydroquinone] | 0% | 15% | – | – | – | –
COCC(=O)OC(c1ncccc1S(=O)(=O)NC(=O)Nc1nc(OC)cc(OC)n1)C(C)F (stereo not shown) [LGC-42153] | – | – | 0.0022 ppm | 0.0011 ppm | 1.793 ppm | –
CON(C)C(=O)Nc1ccc(Cl)c(Cl)c1 [Linurone] | – | – | >10 ppm | 0.244 ppm | 7.07 ppm | –
CC(Oc1ccc2ccccc2c1)C(=O)Nc1ccccc1 (stereo not shown) [Naproanilide] | – | – | 0.0019 ppm | 0.054 ppm | 6.69 ppm | –
CC(C)Oc1cc(-n2nc(C(C)(C)C)oc2=O)c(Cl)cc1Cl [Oxadiazone] | – | – | 0.39 ppm | 0.03 ppm | 6.88 ppm | –
CCOC(=O)[C@@H](C)Oc1ccc(Oc2nc3ccc(Cl)cc3o2)cc1 [Phenoxapro-P-ethyl] | – | – | 4.58 ppm | 0.70 ppm | 6.47 ppm | –
CCOC(=O)c1cnn(C)c1S(=O)(=O)NC(=O)Nc1nc(OC)cc(OC)n1 [Prazolsulfuron-ethyl] | – | – | 0.001 ppm | 0.0012 ppm | 0.066 ppm | –
CCC(=O)Nc1ccc(Cl)c(Cl)c1 [Propanil] | – | – | 5.83 ppm | 0.037 ppm | 8.49 ppm | –
CCOC(=O)c1ccc(O)c(O)c1 [Protocatechuic acid ethyl ester] | 70% | 22% | – | – | – | –
COc1cc(OC)nc(Oc2cccc(Oc3nc(OC)cc(OC)n3)c2C(=O)ON=C(c2ccccc2)c2ccccc2)n1 [Pyribenzoxim] | – | – | 0.0026 ppm | 0.0092 ppm | 7.83 ppm | –
COc1cc2ccc(=O)oc2cc1O [Scopoletin] | 0% | 16% | – | – | – | –
COc1cc(C(=O)O)cc(OC)c1O [Syringic acid] | 0% | 16% | – | – | – | –
O=c1ccc2ccc(O)cc2o1 [Umbelliferone] | 40% | 6% | – | – | – | –
COc1cc(C(=O)O)ccc1O [Vanillic acid] | 10% | 10% | – | – | – | –
O=C(O)/C=C/c1ccccc1O [o-Coumaric acid] | 30% | 32% | – | – | – | –
O=C(O)/C=C/c1ccc(O)cc1 [p-Coumaric acid] | 30% | 17% | – | – | – | –
